Data taken from US20260078103A1, “ISOQUINOLONES AS PI3K INHIBITORS” (OnKure, Inc., priority 2022, published 2026).
Like-named read-outs stand apart in the source and are kept apart here.

How the values were obtained:
Format in all cases: cell-based
[1] = tested on: phosphorylation of AKT (pAKT) in SKBR3 cells express WT PI3Ka; experiment: In vitro cell pAKT (Ser473) HTRF, SKBR3 cells; conditions: cellular pAKT
How it was run: (§1)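 Cells seeded on plates pre-stamped with 10-point compound dilutions, then grown 6 h at 37 °C (T47D in RPMI/10% FBS/insulin; SKBR3 in McCoy's 5a/10% FBS). Lysates read for pAKT Ser473 by HTRF after overnight antibody incubation. Inhibition normalised to 0.1% DMSO and 10 uM alpelisib; IC50 by four-parameter fit.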

[2] = tested on: SKBR3 cells express WT PI3Ka; experiment: In vitro cell proliferation, SKBR3 cells (CellTiter-Glo); conditions: inhibition of proliferation
How it was run: (§2)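 T47D cells in RPMI/10% FBS/insulin (0.2 units/mL) or SKBR3 in McCoys 5a/10% FBS, 1,500 cells/well, grown 72 h at 37 °C with 10-point compound dilutions. CellTiter-Glo luminescence; % inhibition normalised to 0.1% DMSO and 10 uM Alpelisib, EC50 from four-parameter curve fit.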

[3] = tested on: T47D cells expressing mutant PI3Ka (H1047R); experiment: In vitro cell proliferation, T47D cells (CellTiter-Glo); conditions: inhibition of proliferation, read-out: Avg T-47D EC50
How it was run: as §2

[4] = tested on: phosphorylation of AKT (pAKT) in T47D cells expressing mutant PI3Ka (H1047R); experiment: In vitro cell pAKT (Ser473) HTRF, T47D cells; conditions: cellular pAKT, T47D cells, mutant PI3Ka (H1047R), 6 hours, read-out: Avg T-47D IC50
How it was run: as §1

SMILES | IC50 ([1]; Homo sapiens, SK-BR-3, 6 h) | EC50 ([2]; Homo sapiens, SK-BR-3, 72 h) | EC50 ([3]; Homo sapiens, T47D, 72 h) | IC50 ([4]; Homo sapiens, T47D, 6 h) | IC50 ([1]; 6 hours) | EC50 ([2]; 72 hours) | EC50 ([3]; 72 hours) | IC50 [4]
Cc1ccc(-c2ncc(-c3cc4c([C@@H](C)Nc5ccccc5C(=O)O)cc(F)cc4c(=O)n3C)cc2F)c(C)n1 [Example 472] | 2000 to 15000 nM | 2000 to 15000 nM | 1 to 500 nM | 1 to 500 nM |  |  |  | 
Cc1ccc(-c2ncc(-c3cc4c(C(C)Nc5ccccc5C(=O)O)cc(F)cc4c(=O)n3C)cc2F)cn1 (stereo not shown) [Example 473] |  |  |  |  | 2000 to 15000 nM | > 15000 nM | 1 to 500 nM | 1 to 500 nM
Cc1cc(C(C)Nc2cccc(F)c2C(=O)O)c2cc(-c3ccc(COC(F)(F)F)nc3)n(C)c(=O)c2c1 (stereo not shown) [Example 474] |  |  |  |  | > 15000 nM | > 15000 nM | 1 to 500 nM | 1 to 500 nM
Cc1ncc(N2CCN(c3cc4c([C@@H](C)Nc5cccc(F)c5C(=O)O)cc(F)cc4c(=O)n3C)CC2)s1 [Example 477] | 2000 to 15000 nM | > 15000 nM | 1 to 500 nM | 1 to 500 nM |  |  |  | 
Cc1ncc(N2CCN(c3cc4c([C@@H](C)Nc5ccccc5C(=O)O)cc(F)cc4c(=O)n3C)CC2)s1 [Example 478] | 2000 to 15000 nM | > 15000 nM | 1 to 500 nM | 1 to 500 nM |  |  |  | 
C[C@@H](Nc1ccccc1C(=O)O)c1cc(F)cc2c(=O)n(C)c(-c3cc(F)c4nn(C)cc4c3)cc12 [Example 483] | > 15000 nM | > 15000 nM | 500 to 2000 nM | 1 to 500 nM |  |  |  | 
C[C@@H](Nc1cccc(F)c1C(=O)O)c1cc(F)cc2c(=O)n(C)c(-c3cc(F)c4nn(C)cc4c3)cc12 [Example 484] | > 15000 nM | > 15000 nM | 500 to 2000 nM | 500 to 2000 nM |  |  |  | 
Cc1cc([C@@H](C)Nc2nccnc2C(=O)O)c2cc(N3CCN(CC(F)(F)F)CC3)n(C)c(=O)c2c1 [Example 485] | > 15000 nM | 2000 to 15000 nM | 2000 to 15000 nM | 500 to 2000 nM |  |  |  | 
Cc1nc(N2CCN(c3cc4c([C@@H](C)Nc5cccc(F)c5C(=O)O)cc(F)cc4c(=O)n3C)CC2)cs1 [Example 490] | 2000 to 15000 nM | 2000 to 15000 nM | 1 to 500 nM | 1 to 500 nM |  |  |  | 
Cc1nc(N2CCN(c3cc4c([C@@H](C)Nc5ccccc5C(=O)O)cc(F)cc4c(=O)n3C)CC2)cs1 [Example 491] | 2000 to 15000 nM | 2000 to 15000 nM | 1 to 500 nM | 1 to 500 nM |  |  |  | 
Cc1cnc(N2CCN(c3cc4c([C@@H](C)Nc5ccccc5C(=O)O)cc(F)cc4c(=O)n3C)CC2)c(C)n1 [Example 492] | 2000 to 15000 nM | 2000 to 15000 nM | 1 to 500 nM | 1 to 500 nM |  |  |  | 
Cc1ncc(N2CCN(c3cc4c([C@@H](C)Nc5ccccc5C(=O)O)cc(F)cc4c(=O)n3C)CC2)c(C)n1 [Example 495] | 500 to 2000 nM | 2000 to 15000 nM | 1 to 500 nM | 1 to 500 nM |  |  |  | 
C[C@@H](Nc1ccccc1C(=O)O)c1cc(F)cc2c(=O)n(C)c(-c3cc(F)c4nn(C(F)F)cc4c3)cc12 [Example 496] | > 15000 nM | > 15000 nM | 500 to 2000 nM | 1 to 500 nM |  |  |  | 
C[C@@H](Nc1ccccc1C(=O)O)c1cc(F)cc2c(=O)n(C)c(-c3ccc(OC4CC4)nc3)cc12 [Example 497] | > 15000 nM | > 15000 nM | 1 to 500 nM | 1 to 500 nM |  |  |  | 
CC(=O)N1CCN(c2cc3c([C@@H](C)Nc4ccccc4C(=O)O)cc(C)cc3c(=O)n2C)CC1 [Example 498] | > 15000 nM | > 15000 nM | 500 to 2000 nM | 500 to 2000 nM |  |  |  | 
Cc1cc([C@@H](C)Nc2ccccc2C(=O)O)c2cc(N3CCN(C=O)CC3)n(C)c(=O)c2c1 [Example 499] | > 15000 nM | > 15000 nM | 500 to 2000 nM | 500 to 2000 nM |  |  |  | 
Cc1ncc(-c2cc3c([C@@H](C)Nc4ccccc4C(=O)O)cc(F)cc3c(=O)n2C)s1 [Example 501] | > 15000 nM | > 15000 nM | 1 to 500 nM | 1 to 500 nM |  |  |  | 
Cc1ccc(N2CCN(c3cc4c([C@@H](C)Nc5ccccc5C(=O)O)cc(F)cc4c(=O)n3C)CC2(C)C)cn1 [Example 502] | 500 to 2000 nM | 2000 to 15000 nM | 1 to 500 nM | 1 to 500 nM |  |  |  | 
Cc1cc([C@@H](C)Nc2ncccc2C(=O)O)c2cc(N3CCN(CC(F)(F)F)CC3)n(C)c(=O)c2c1 [Example 503] | > 15000 nM | > 15000 nM | 500 to 2000 nM | 500 to 2000 nM |  |  |  | 
Cc1cnc(-c2cc3c([C@@H](C)Nc4ccccc4C(=O)O)cc(F)cc3c(=O)n2C)s1 [Example 504] | > 15000 nM | > 15000 nM | 1 to 500 nM | 1 to 500 nM |  |  |  | 

SMILES | IC50 ([1]; Homo sapiens, SK-BR-3, 6 h) | EC50 ([2]; Homo sapiens, SK-BR-3, 72 h) | EC50 ([3]; Homo sapiens, T47D, 72 h) | IC50 ([4]; Homo sapiens, T47D, 6 h) | IC50 ([1]; 6 hours) | EC50 ([2]; 72 hours) | EC50 ([3]; 72 hours) | IC50 [4]
C[C@@H](Nc1ccccc1C(=O)O)c1cc(F)cc2c(=O)n(C)c(-c3cnc(-c4ncc(Cl)cc4F)c(F)c3)cc12 [Example 505] |  |  |  |  | > 15000 nM | > 15000 nM | 1 to 500 nM | 1 to 500 nM
C[C@@H](Nc1ccccc1C(=O)O)c1cc(F)cc2c(=O)n(C)c(-c3ccc(OC4COC4)nc3)cc12 [Example 507] |  |  |  |  | > 15000 nM | > 15000 nM | 500 to 2000 nM | 1 to 500 nM
C[C@@H](Nc1ccccc1C(=O)O)c1cc(F)cc2c(=O)n(C)c(-c3cnc(C(F)(F)F)s3)cc12 [Example 508] | > 15000 nM | > 15000 nM | 500 to 2000 nM | 500 to 2000 nM |  |  |  | 
Cc1cc([C@@H](C)Nc2ccccc2C(=O)O)c2cc(N3CCN(c4cnc(C(F)(F)F)nc4)CC3)n(C)c(=O)c2c1 [Example 509] | 2000 to 15000 nM | 2000 to 15000 nM | 1 to 500 nM | 1 to 500 nM |  |  |  | 
C[C@@H](Nc1ccccc1C(=O)O)c1cc(F)cc2c(=O)n(C)c(N3CCN(CC(F)(F)F)C(C)(C)C3)cc12 [Example 510] | > 15000 nM | > 15000 nM | 1 to 500 nM | 1 to 500 nM |  |  |  | 
C[C@@H](Nc1ccccc1C(=O)O)c1cc(F)cc2c(=O)n(C)c(N3CC4CCC(C3)N4CC(F)(F)F)cc12 [Example 511] | > 15000 nM | 2000 to 15000 nM | 1 to 500 nM | 1 to 500 nM |  |  |  | 
Cc1cc(N2CCN(c3cc4c([C@@H](C)Nc5ccccc5C(=O)O)cc(F)cc4c(=O)n3C)CC2)on1 [Example 512] | 2000 to 15000 nM | 2000 to 15000 nM | 1 to 500 nM | 1 to 500 nM |  |  |  | 
COc1ncc(-c2cc3c([C@@H](C)Nc4ccccc4C(=O)O)cc(F)cc3c(=O)n2C)s1 [Example 513] | > 15000 nM | > 15000 nM | 1 to 500 nM | 1 to 500 nM |  |  |  | 
Cc1cnc(-c2ncc(-c3cc4c([C@@H](C)Nc5ccccc5C(=O)O)cc(F)cc4c(=O)n3C)cc2F)cn1 [Example 515] | > 15000 nM | 2000 to 15000 nM | 1 to 500 nM | 1 to 500 nM |  |  |  | 
Cc1cc([C@@H](C)Nc2ccccc2C(=O)O)c2cc(-c3cnc(C(C)C)cn3)n(C)c(=O)c2c1 [Example 516] | > 15000 nM | > 15000 nM | 1 to 500 nM | 1 to 500 nM |  |  |  | 
Cc1cc([C@@H](C)Nc2ccccc2C(=O)O)c2cc(-c3cnc(C4CC4)cn3)n(C)c(=O)c2c1 [Example 517] | > 15000 nM | > 15000 nM | 1 to 500 nM | 1 to 500 nM |  |  |  | 
C[C@@H](Nc1ccccc1C(=O)O)c1cc(F)cc2c(=O)n(C)c(-c3cnc(-c4nccs4)c(F)c3)cc12 [Example 518] | > 15000 nM | > 15000 nM | 1 to 500 nM | 1 to 500 nM |  |  |  | 
Cc1ncc(-c2ncc(-c3cc4c([C@@H](C)Nc5ccccc5C(=O)O)cc(F)cc4c(=O)n3C)cc2F)s1 [Example 519] |  |  |  |  | > 15000 nM | > 15000 nM | 1 to 500 nM | 1 to 500 nM
Cc1cc(-c2ncc(-c3cc4c([C@@H](C)Nc5ccccc5C(=O)O)cc(F)cc4c(=O)n3C)cc2F)on1 [Example 520] |  |  |  |  | > 15000 nM | > 15000 nM | 1 to 500 nM | 1 to 500 nM
C[C@@H](Nc1ccccc1C(=O)O)c1cc(F)cc2c(=O)n(C)c(C34CC(C(F)(F)F)(C3)C4)cc12 [Example 521] |  |  |  |  | > 15000 nM | 2000 to 15000 nM | 1 to 500 nM | 1 to 500 nM
CCc1ncc(-c2cc3c([C@@H](C)Nc4ccccc4C(=O)O)cc(F)cc3c(=O)n2C)s1 [Example 524] | > 15000 nM | > 15000 nM | 1 to 500 nM | 1 to 500 nM |  |  |  | 
Cc1cc([C@@H](C)Nc2ccccc2C(=O)O)c2c(F)c(C3CC3)n(C)c(=O)c2c1 [Example 529] | > 15000 nM | > 15000 nM | 1 to 500 nM | 1 to 500 nM |  |  |  | 
CCOc1ncc(-c2c(F)c3c([C@@H](C)Nc4ccccc4C(=O)O)cc(C)cc3c(=O)n2C)s1 [Example 536] | > 15000 nM | > 15000 nM | 1 to 500 nM | 1 to 500 nM |  |  |  | 
C[C@@H](Nc1ccccc1C(=O)O)c1cc(F)cc2c(=O)n(C)c(-c3cnc(C(F)F)s3)cc12 [Example 539] | > 15000 nM | > 15000 nM | 1 to 500 nM | 1 to 500 nM |  |  |  | 
C[C@@H](Nc1ccccc1C(=O)O)c1cc(F)cc2c(=O)n(C)c(-c3ccc(COC(F)(F)F)nc3)cc12 [Example 540] | > 15000 nM | > 15000 nM | 1 to 500 nM | 1 to 500 nM |  |  |  | 
